Source: US20180008573A1, “METHODS AND COMPOSITIONS FOR REDUCING DAMAGE ASSOCIATED WITH OXIDATIVE PHOSPHORYLATION” (USANA Health Sciences, Inc., priority 2016, published 2018)
Marks after values point to notes of the source that are not given here. One block for each molecule: values may come before it.

Key:
human PPARα = molecular target: T1, human PPARα (Homo sapiens, UniProt Q07869); experiment: PPARα agonist reporter assay (Gal4 hybrid receptor, luciferase, CHO cells); format: cell-based
T1 construct: expressed in transfected cells; host or cells: CHO
T1 sequence (Q07869 239-466 limits assumed): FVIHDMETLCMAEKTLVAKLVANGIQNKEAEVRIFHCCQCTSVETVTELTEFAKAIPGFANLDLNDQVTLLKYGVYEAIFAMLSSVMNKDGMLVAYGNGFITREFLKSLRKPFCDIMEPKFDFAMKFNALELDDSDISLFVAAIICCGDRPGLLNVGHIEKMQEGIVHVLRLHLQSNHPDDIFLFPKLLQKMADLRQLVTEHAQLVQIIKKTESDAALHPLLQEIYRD

human PPARδ = molecular target: T2, human PPARδ (Homo sapiens, UniProt Q03181); experiment: PPARδ agonist reporter assay (Gal4 hybrid receptor, luciferase, CHO cells); format: cell-based
T2 construct: expressed in transfected cells; host or cells: CHO
T2 sequence (Q03181 211-439 limits assumed): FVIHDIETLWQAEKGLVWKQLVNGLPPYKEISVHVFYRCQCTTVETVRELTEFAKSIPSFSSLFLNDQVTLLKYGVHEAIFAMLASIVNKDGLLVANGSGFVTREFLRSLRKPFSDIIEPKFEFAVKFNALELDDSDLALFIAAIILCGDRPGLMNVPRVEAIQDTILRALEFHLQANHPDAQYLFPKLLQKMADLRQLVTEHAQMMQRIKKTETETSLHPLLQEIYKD

human PPARγ = molecular target: T3, human PPARγ (Homo sapiens, UniProt P37231); experiment: PPARγ agonist reporter assay (Gal4 hybrid receptor, luciferase, CHO cells); format: cell-based
T3 construct: expressed in transfected cells; host or cells: CHO
T3 sequence (P37231 238-503 limits assumed): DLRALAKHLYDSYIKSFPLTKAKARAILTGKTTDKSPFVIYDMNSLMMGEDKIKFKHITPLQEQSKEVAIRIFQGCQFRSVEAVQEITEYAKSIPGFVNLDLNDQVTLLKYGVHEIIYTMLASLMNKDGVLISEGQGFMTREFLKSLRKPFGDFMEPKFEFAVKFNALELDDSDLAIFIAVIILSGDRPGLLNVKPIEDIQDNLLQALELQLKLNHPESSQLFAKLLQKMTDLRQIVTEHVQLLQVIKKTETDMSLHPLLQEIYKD

human NF-κB = experiment: NF-κB antagonist reporter assay (NF-κB GRE-luciferase, HEK293 cells); format: cell-based;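 further: reporter cells carry native NF-κB receptor with firefly luciferase under upstream response elements, with a vehicle control included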
NF-κB reporter cells = experiment: Live cell multiplex assay in the NF-κB antagonist assay; format: cell-based, human
Protocol: A vehicle control was prepared.

Nrf2 = molecular target: T4, Nrf2 (Homo sapiens, UniProt Q16236); experiment: Nrf2 agonist reporter assay (native receptor, ARE-luciferase, CV1 cells); format: cell-based; parameters: comprising either the native receptor (Nrf2 and NF-κB); expressed in transfected cells; host or cells: CV1
T4 sequence (Q16236 1-605): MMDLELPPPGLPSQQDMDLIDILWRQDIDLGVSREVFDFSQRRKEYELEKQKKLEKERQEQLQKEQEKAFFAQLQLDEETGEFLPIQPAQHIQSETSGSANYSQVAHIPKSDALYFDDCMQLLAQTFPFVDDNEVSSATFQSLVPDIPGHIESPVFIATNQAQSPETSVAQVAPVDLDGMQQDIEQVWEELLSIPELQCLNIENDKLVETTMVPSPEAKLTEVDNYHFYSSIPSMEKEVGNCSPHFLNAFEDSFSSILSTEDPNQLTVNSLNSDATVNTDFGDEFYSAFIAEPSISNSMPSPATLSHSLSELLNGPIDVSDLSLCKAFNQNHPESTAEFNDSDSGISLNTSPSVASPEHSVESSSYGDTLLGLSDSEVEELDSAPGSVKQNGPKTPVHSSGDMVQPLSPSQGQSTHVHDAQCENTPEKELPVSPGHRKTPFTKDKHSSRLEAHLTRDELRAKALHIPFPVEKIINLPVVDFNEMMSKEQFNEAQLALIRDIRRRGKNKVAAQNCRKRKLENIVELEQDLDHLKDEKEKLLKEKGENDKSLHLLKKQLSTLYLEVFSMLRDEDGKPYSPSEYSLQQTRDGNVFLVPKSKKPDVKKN

- PPARα Fold-Activation (human PPARα; 0.007 μg/ml active ingredient): 1.3 fold
- PPARα Fold-Activation (human PPARα; 0.022 μg/ml active ingredient): 1.3 fold
- PPARα Fold-Activation (human PPARα; 0.067 μg/ml active ingredient): 1.3 fold
- PPARα Fold-Activation (human PPARα; 0.20 μg/ml active ingredient): 1.1 fold
- PPARα Fold-Activation (human PPARα; 0.60 μg/ml active ingredient): 1.0 fold
- PPARα Fold-Activation (human PPARα; 1.81 μg/ml active ingredient): 0.86 fold
- PPARδ Fold-Activation (human PPARδ; 0.007 μg/ml active ingredient): 1.2 fold
- PPARδ Fold-Activation (human PPARδ; 0.022 μg/ml active ingredient): 1.2 fold
- PPARδ Fold-Activation (human PPARδ; 0.067 μg/ml active ingredient): 1.0 fold
- PPARδ Fold-Activation (human PPARδ; 0.20 μg/ml active ingredient): 1.2 fold
- PPARδ Fold-Activation (human PPARδ; 0.60 μg/ml active ingredient): 1.3 fold
- PPARδ Fold-Activation (human PPARδ; 1.81 μg/ml active ingredient): 1.0 fold
- PPARγ Fold-Activation (human PPARγ; 0.007 μg/ml active ingredient): 1.0 fold
- PPARγ Fold-Activation (human PPARγ; 0.022 μg/ml active ingredient): 1.0 fold
- PPARγ Fold-Activation (human PPARγ; 0.067 μg/ml active ingredient): 0.95 fold
- PPARγ Fold-Activation (human PPARγ; 0.20 μg/ml active ingredient): 0.96 fold
- PPARγ Fold-Activation (human PPARγ; 0.60 μg/ml active ingredient): 0.90 fold
- PPARγ Fold-Activation (human PPARγ; 1.81 μg/ml active ingredient): 1.1 fold
- Nrf2 Fold-Activation (Nrf2; 0.007 μg/ml active ingredient): 1.6 fold
- Nrf2 Fold-Activation (Nrf2; 0.022 μg/ml active ingredient): 1.7 fold
- Nrf2 Fold-Activation (Nrf2; 0.067 μg/ml active ingredient): 1.4 fold
- Nrf2 Fold-Activation (Nrf2; 0.20 μg/ml active ingredient): 0.96 fold
- Nrf2 Fold-Activation (Nrf2; 0.60 μg/ml active ingredient): 1.0 fold
- Nrf2 Fold-Activation (Nrf2; 1.81 μg/ml active ingredient): 1.6 fold
Compound: COc1cc(/C=C/C(=O)CC(=O)/C=C/c2ccc(O)c(OC)c2)ccc1O [Curcumin, curcumin]
- NF-κB % Inhibition (human NF-κB; 0.007 μg/ml active ingredient): −10%
- NF-κB % Inhibition (human NF-κB; 0.022 μg/ml active ingredient): −3.4%
- NF-κB % Inhibition (human NF-κB; 0.067 μg/ml active ingredient): −0.29%
- NF-κB % Inhibition (human NF-κB; 0.20 μg/ml active ingredient): 22%
- NF-κB % Inhibition (human NF-κB; 0.60 μg/ml active ingredient): 30%
- NF-κB % Inhibition (human NF-κB; 1.81 μg/ml active ingredient): 51** %
- antagonist activity against human NF-κB (human NF-κB; at the concentrations tested): very low-level antagonist activity
- NF-κB % Live Cell (NF-κB reporter cells; 0.007 μg/ml active ingredient): 105%
- NF-κB % Live Cell (NF-κB reporter cells; 0.022 μg/ml active ingredient): 105%
- NF-κB % Live Cell (NF-κB reporter cells; 0.067 μg/ml active ingredient): 106%
- NF-κB % Live Cell (NF-κB reporter cells; 0.20 μg/ml active ingredient): 105%
- NF-κB % Live Cell (NF-κB reporter cells; 0.60 μg/ml active ingredient): 99%
- NF-κB % Live Cell (NF-κB reporter cells; 1.81 μg/ml active ingredient): 97%

Compound: O=C(O[C@@H]1Cc2c(O)cc(O)cc2O[C@@H]1c1cc(O)c(O)c(O)c1)c1cc(O)c(O)c(O)c1 [EGCG, epigallocatechin gallate]
- NF-κB % Inhibition (human NF-κB; 0.033 μg/ml active ingredient): 10%
- NF-κB % Inhibition (human NF-κB; 0.098 μg/ml active ingredient): 18%
- NF-κB % Inhibition (human NF-κB; 0.30 μg/ml active ingredient): 0.10%
- NF-κB % Inhibition (human NF-κB; 0.89 μg/ml active ingredient): 8.4%
- NF-κB % Inhibition (human NF-κB; 2.67 μg/ml active ingredient): −15%
- NF-κB % Inhibition (human NF-κB; 8 μg/ml active ingredient): −29%
- NF-κB % Live Cell (NF-κB reporter cells; 0.033 μg/ml active ingredient): 102%
- NF-κB % Live Cell (NF-κB reporter cells; 0.098 μg/ml active ingredient): 101%
- NF-κB % Live Cell (NF-κB reporter cells; 0.30 μg/ml active ingredient): 105%
- NF-κB % Live Cell (NF-κB reporter cells; 0.89 μg/ml active ingredient): 104%
- NF-κB % Live Cell (NF-κB reporter cells; 2.67 μg/ml active ingredient): 106%
- NF-κB % Live Cell (NF-κB reporter cells; 8 μg/ml active ingredient): 107%
